The source of these data is patent US20040241755A1, “Human cell assay to determine effect of sample compounds on Col2 enhancer expression” (Pfizer Inc., priority 2003, published 2004).

What all share (format): cell-based, human
For one assay, the system named is 48 bp Col2a1 enhancer. Kind of assay: 48 bp Col2a1 enhancer luciferase reporter transfection assay in SW1353 cells. Conditions: for relief of cytokine mediated inhibition of enhancer expression by co-treatment: co-treatment with TNFα or IL-1β, SW1353 cells; for reduction of enhancer driven luciferase expression: 10 ng/ml; for effect on Sox9 activity / responsiveness of SW1353 cells transfected with the 48 bp Col2a1 enhancer: concentration not given, data not shown. The method, then:
Reagents were obtained from Invitrogen unless otherwise noted. SW1353 human chondrosarcoma cells (ATCC #HTB-94) were grown in DMEM 10% FBS 10 ug/ml Gentamicin and passaged (2 times a week) using with 0.25% Trypsin-EDTA.
Cells were plated at ˜10^6 cells per flask into a T-75 in 10 ml growth media or an equivalent based on culture vessel surface area, 24 hours prior to transfection. For each transfection, 24 ul of Transit (PanVera) was diluted into 250 ul OptiMEM and 12 ug of reporter plasmid Col2a1 enhancer construct (48 bp Col2a1, was added. After 15-30 minute incubation, growth media was removed from the cells, and the DNA-transfection reagent complexes diluted to a final volume of 10 ml with OptiMEM and added to the cells. Transfection media was replaced with fresh media after 7 hours. 24 hours post transfection the cells were treated with media alone or indicated factors. Cells were harvested 48 hours post-transfection and luciferase activity measured using the LucLite and the TopCount LSC plate reader (Packard).
We analyzed the activity of the 48 bp Col2a1 enhancer construct (48 bp Col2a1) in transfected SW1353 cells. SW1353 cells were transfected with a constant amount of reporter (0.25 ug), with or without increasing amounts of the Sox9 expression construct or empty vector.

In another assay the test system is Sox9 mRNA. Kind of assay: Sox9 mRNA expression in SW1353 cells by real time quantitative PCR (TaqMan). Conditions: 48 hours, relative to GAPDH. The method, then: RNA was prepared from 75 cm dishes using RNeasy Kits with DNAse treatment (Qiagen) according to the manufacturer's protocol except a second application of DNase was used. cDNA was prepared from 10-20 ul of RNA (1-4 ug) using random hexamer primers and PE Biosystems Reverse Transcription reagents. Taqman reactions used 8 ul cDNA and 2× PE Universal PCR Master Mix (PE Biosystems), 900 nM PCR primers and 200 nM FAM-TAMRA probe. Reactions (50 ul) were cycled and quantified using the PE 5700 with standard conditions for 45 cycles. The data was analyzed using GeneAmp5700 software Mix (PE Biosystems), adjusting the threshold to linear range for all samples. The ΔCt is calculated by subtracting normalizer (GAPDH) from corresponding gene-specific values. The ΔΔCt is calculated by subtracting treated ΔCt from control ΔCt. Fold induction is determined by calculating 2^ΔΔCt. Data is reported as % increase over control sample.
The effect of chondrocyte growth factors as well as inhibitory cytokines on the expression of Sox9 RNA in SW1353 cells using real time quantitative PCR (TaqMan, P E Applied Biosystems) was determined. Cells were cultured and treated with growth factors or cytokines as described above. After 48 hours cells were harvested and RNA prepared. A custom Sox9 primer probe set was validated by an efficiency plot over several logs and relative Sox 9 expression was quantified relative to GAPDH.
On the technique in general: Quantitative PCR measures a nucleic acid by following its amplification.

The subject of a further assay is IL-8. Kind of assay: Induction of IL-8 expression in SW1353 cells. Conditions: for stimulation of expression of IL-8: 10 ng/ml. The protocol: SW1353 cells were transfected with the 48 bp Col2a1 reporter and then treated with vehicle, TNFα (10 ng/ml) or IL-1β (10 ng/ml) (FIG. 2A).
The effect of increasing IL-1β doses on the two response was determined. […] Therefore, SW1353 cells appear to respond to a dynamic range of IL-1β levels with selective functional responses, making them potentially useful in models of both osteoarthritis and rheumatoid diseases.

The test system of the next assay is matrix metalloproteases. Kind of assay: Stimulation of matrix metalloprotease expression in SW1353 cells. Conditions: data not shown.

Take “FGF-1: pro-chondrogenic fibroblast growth factor”: in the assay on 48 bp Col2a1 enhancer, the “relief of cytokine mediated inhibition of enhancer expression by co-treatment” value is recorded as “partially relieved”. For the same molecule, the “increase in expression of Sox9 mRNA” value with Sox9 mRNA is around 2 fold.
Taken in the same sequence, the figures for “FGF-2: pro-chondrogenic fibroblast growth factor” were “partially relieved” and “approximately 1.5 fold”.
IL-1β: pro-inflammatory cytokine: in the assay with 48 bp Col2a1 enhancer (transfected SW1353 cells), the “reduction of enhancer driven luciferase expression” value is on record as around 50% and the “concentration giving maximal inhibition (repression) of Col2 enhancer activity” value turned out to be 20 pg/mL. Besides, the “stimulation of Col2 enhancer activity at very low levels” value in the assay on 48 bp Col2a1 enhancer (0.1-1 pg/ml, transfected SW1353 cells) is listed as “about 150%”. Besides, the “stimulation of expression of IL-8” value in the assay with IL-8 was “stimulate”. The “induction of IL-8” value in the assay on IL-8 (IL-1 concentrations below 20 pg/ml) is listed as “not detected”. Also, the “decrease in Sox9 expression” value in the assay with Sox9 mRNA is 60%. For the same molecule, the “stimulation of expression of matrix metalloproteases” value with matrix metalloproteases is given as “stimulate”.
With “PTHrP: parathyroid hormone-related peptide”, the “effect on Sox9 activity / responsiveness of SW1353 cells transfected with the 48 bp Col2a1 enhancer” value (shortened to “effect on Sox9 activity / responsiveness”) with 48 bp Col2a1 enhancer was “not seen an effect”.
Regarding “TGFα: growth factor to which SW1353 cells appear unresponsive”, in the assay on 48 bp Col2a1 enhancer, the “effect on Sox9 activity / responsiveness” value is “unresponsive”.
In the case of TNFα, the “reduction of enhancer driven luciferase expression” value in the assay on 48 bp Col2a1 enhancer (transfected SW1353 cells) was “approximately 60%”. Further, in the assay with IL-8, the “stimulation of expression of IL-8” value is “stimulate”. Besides, the “decrease in Sox9 expression” value in the assay with Sox9 mRNA is recorded as 45%. In addition, the “stimulation of expression of matrix metalloproteases” value with matrix metalloproteases is “stimulate”.

B1: BMP-6: BMP growth factor (protein, UniProt P22004 375-513, looked up)
Bone morphogenetic protein 6: SASSRRRQQSRNRSTQSQDVARVSSASDYNSSELKTACRKHELYVSFQDLGWQDWIIAPKGYAANYCDGECSFPLNAHMNATNHAIVQTLVHLMNPEYVPKPCCAPTKLNAISVLYFDDNSNVILKKYRNMVVRACGCH
For B1, the “effect on Sox9 activity / responsiveness” value in the assay on 48 bp Col2a1 enhancer was “unresponsive”.

B2: FGF-7: fibroblast growth factor which signals exclusively through the epithelial-cell restricted FGFRIIIb receptor (protein, UniProt P21781 32-194, looked up)
Fibroblast growth factor 7: CNDMTPEQMATNVNCSSPERHTRSYDYMEGGDIRVRRLFCRTQWYLRIDKRGKVKGTQEMKNNYNIMEIRTVAVGIVAIKGVESEFYLAMNKEGKLYAKKECNEDCNFKELILENHYNTYASAKWTHNGGEMFVALNQKGIPVRGKKTKKEQKTAHFLPMAIT
As for B2, in the assay with 48 bp Col2a1 enhancer (200 ng/ml added to transfected SW1353 cultures), the “increase in expression of the 48 bp Col2a1 enhancer” value is listed as “no effect”.

B3: BMP-4: BMP growth factor (protein, UniProt P12644 293-408, looked up)
Bone morphogenetic protein 4: SPKHHSQRARKKNKNCRRHSLYVDFSDVGWNDWIVAPPGYQAFYCHGDCPFPLADHLNSTNHAIVQTLVNSVNSSIPKACCVPTELSAISMLYLDEYDKVVLKNYQEMVVEGCGCR
Turning to B3, the “effect on Sox9 activity / responsiveness” value with 48 bp Col2a1 enhancer is listed as “unresponsive”.
